According to US6737383B1, “Herbicidal oxadiazolidines” (priority 1999, dated 2004):

What was measured:
bedstraw = assay: Test B pre/postemergence bedstraw; format: in vivo, Galium aparine; settings: scale of 0 to 10 where 0 is no effect and 10 is complete control
How it was run: (§1)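 Response is a visual 0-to-10 score relative to untreated plants, where 0 means no effect and 10 means complete control, taken twelve to sixteen days after application. Treatments went onto soil at planting and onto foliage of 1- to 4-leaf plants, using a surfactant-containing non-phytotoxic solvent.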

blackgrass = assay: Test B pre/postemergence blackgrass; format: in vivo, Alopecurus myosuroides
How it was run: as §1

surinam grass = assay: Test B pre/postemergence surinam grass; format: in vivo, Brachiaria decumbens
How it was run: as §1

cocklebur = assay: Test B pre/postemergence cocklebur; format: in vivo, Xanthium strumarium
How it was run: as §1

corn = assay: Test B pre/postemergence corn; format: in vivo, Zea mays
How it was run: as §1

crabgrass = assay: Test B pre/postemergence crabgrass; format: in vivo, Digitaria sanguinalis
How it was run: as §1

giant foxtail = assay: Test B pre/postemergence giant foxtail; format: in vivo, Setaria faberii
How it was run: as §1

morningglory = assay: Test B pre/postemergence morningglory; format: in vivo, Ipomoea hederacea
How it was run: as §1

pigweed = assay: Test B pre/postemergence pigweed; format: in vivo, Amaranthus retroflexus
How it was run: as §1

rape = assay: Test B pre/postemergence rape; format: in vivo, Brassica napus
How it was run: as §1

soybean = assay: Test B pre/postemergence soybean; format: in vivo, Glycine max
How it was run: as §1

sugar beet = assay: Test B pre/postemergence sugar beet; format: in vivo, Beta vulgaris
How it was run: as §1

velvetleaf = assay: Test B pre/postemergence velvetleaf; format: in vivo, Abutilon theophrasti
How it was run: as §1

wheat = assay: Test B pre/postemergence wheat; format: in vivo, Triticum aestivum
How it was run: as §1

wild oat = assay: Test B pre/postemergence wild oat; format: in vivo, Avena fatua
How it was run: as §1

purple nutsedge = assay: Test B pre/postemergence purple nutsedge; format: in vivo, Cyperus rotundus
How it was run: as §1

rice = assay: Test B flood test rice; format: in vivo, Oryza sativa
How it was run: (§2)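 Each value is a visual injury score relative to controls, with 10 meaning complete control and 0 no effect. Evaluation took place twelve to sixteen days after the 2-leaf-stage plants were treated and kept in the greenhouse.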

smallflower flatsedge = assay: Test B flood test smallflower flatsedge; format: in vivo, Cyperus difformis
How it was run: as §2

duck salad = assay: Test B flood test duck salad; format: in vivo, Heteranthera limosa
How it was run: as §2

bamyardgrass = assay: Test B flood test barnyardgrass; format: in vivo, Echinochloa crus-galli
How it was run: as §2

[1] = Preemergence, Rate 250 g/ha, scale of 0 to 10 where 0 is no effect and 10 is complete control
[2] = Preemergence, Rate 500 g/ha, scale of 0 to 10 where 0 is no effect and 10 is complete control
[3] = Rate 62 g/ha, Postemergence, scale 0 to 10, 0 no effect, 10 complete control
[4] = Rate 125 g/ha, Postemergence, scale of 0 to 10 where 0 is no effect and 10 is complete control
[5] = Rate 250 g/ha, Postemergence, scale of 0 to 10 where 0 is no effect and 10 is complete control
[6] = Rate 500 g/ha, Postemergence, scale 0 to 10, 0 no effect, 10 complete control
[7] = Rate 62 g/ha, headed Pre-emergence (flood test species), scale 0 to 10 (0 no effect, 10 complete control)
[8] = Rate 125 g/ha, Pre-emergence, flood test species, scale 0 to 10 where 0 is no effect and 10 is complete control
[9] = Rate 250 g/ha, Pre-emergence, flood-test species, scale 0 to 10, 0 is no effect, 10 is complete control
[10] = Rate 500 g/ha, Pre-emergence, flood test species, scale 0 to 10 (0 no effect, 10 complete control)

## CCc1cccc(CC)c1-n1c(=O)on(C(=O)N(c2ccccc2)C(C)C)c1=O [Compound 305]
bedstraw; Preemergence, Rate 250 g/ha
  Bedstraw plant response rating: 0
bedstraw; Preemergence, Rate 500 g/ha
  Bedstraw plant response rating: 0
bedstraw; Rate 125 g/ha, Postemergence
  Bedstraw plant response rating: 0
blackgrass; Preemergence, Rate 125 g/ha
  Blackgrass plant response rating (0 to 10 scale): 0
blackgrass; [1]
  Blackgrass plant response rating: 0
blackgrass; [2]
  Blackgrass plant response rating: 4
blackgrass; [3]
  Blackgrass plant response rating: 0
blackgrass; [4]
  Blackgrass plant response rating: 0
blackgrass; [5]
  Plant response rating, Blackgrass: 0
blackgrass; [6]
  Blackgrass plant response rating: 0
Surinam grass; Preemergence, Rate 125 g/ha
  B. signalgrass plant response rating (0 to 10 scale, 0 is no effect, 10 is complete control): 0
Surinam grass; [1]
  B. signalgrass plant response rating: 0
Surinam grass; [2]
  B. signalgrass plant response rating: 5
Surinam grass; [3]
  B. signalgrass plant response rating: 0
Surinam grass; [4]
  B. signalgrass plant response rating: 0
Surinam grass; [5]
  Plant response rating, B. signalgrass: 0
Surinam grass; [6]
  B. signalgrass plant response rating: 0
cocklebur; Preemergence, Rate 125 g/ha
  Cocklebur plant response rating (0 to 10 scale): 0
cocklebur; [1]
  Cocklebur plant response rating: 0
cocklebur; [2]
  Cocklebur plant response rating: 0
cocklebur; [3]
  Cocklebur plant response rating: 0
cocklebur; [4]
  Cocklebur plant response rating: 0
cocklebur; [5]
  Plant response rating, Cocklebur: 0
cocklebur; [6]
  Cocklebur plant response rating: 0
corn; Preemergence, Rate 125 g/ha
  Corn plant response rating (0 to 10 scale): 0
corn; [1]
  Corn plant response rating: 0
corn; [2]
  Corn plant response rating: 0
corn; [3]
  Corn plant response rating: 0
corn; [4]
  Corn plant response rating: 0
corn; [5]
  Plant response rating, Corn: 0
corn; [6]
  Corn plant response rating: 0
crabgrass; Preemergence, Rate 125 g/ha
  Crabgrass plant response rating (0 to 10 scale): 4
crabgrass; [1]
  Crabgrass plant response rating: 6
crabgrass; [2]
  Crabgrass plant response rating: 7
crabgrass; [3]
  Crabgrass plant response rating: 0
crabgrass; [4]
  Crabgrass plant response rating: 0
crabgrass; [5]
  Plant response rating, Crabgrass: 0
Giant foxtail; Preemergence, Rate 125 g/ha
  Giant foxtail plant response rating (0 to 10 scale): 8
Giant foxtail; [1]
  Giant foxtail plant response rating: 9
Giant foxtail; [2]
  Giant foxtail plant response rating: 10
Giant foxtail; [3]
  Giant foxtail plant response rating: 0
Giant foxtail; [4]
  Giant foxtail plant response rating: 0
Giant foxtail; [5]
  Plant response rating, Giant foxtail: 0
morningglory; Preemergence, Rate 125 g/ha
  Morningglory plant response rating (0 to 10 scale): 0
morningglory; [1]
  Morningglory plant response rating: 0
morningglory; [2]
  Morningglory plant response rating: 0
morningglory; [3]
  Morningglory plant response rating: 0
morningglory; [4]
  Morningglory plant response rating: 0
morningglory; [5]
  Plant response rating, Morningglory: 0
pigweed; Preemergence, Rate 125 g/ha
  Redroot pigweed plant response rating (0 to 10 scale): 0
pigweed; [1]
  Redroot pigweed plant response rating: 3
pigweed; [2]
  Redroot pigweed plant response rating: 7
pigweed; [3]
  Redroot pigweed plant response rating: 3
pigweed; [4]
  Redroot pigweed plant response rating: 3
pigweed; [5]
  Plant response rating, Redroot pigweed: 4
rape; Preemergence, Rate 125 g/ha
  Rape plant response rating (0 to 10 scale): 0
rape; [1]
  Rape plant response rating: 0
rape; [2]
  Rape plant response rating: 0
rape; [3]
  Rape plant response rating: 0
rape; [4]
  Rape plant response rating: 0
rape; [5]
  Plant response rating, Rape: 0
soybean; Preemergence, Rate 125 g/ha
  Soybean plant response rating (0 to 10 scale): 0
soybean; [1]
  Soybean plant response rating: 0
soybean; [2]
  Soybean plant response rating: 0
soybean; [3]
  Soybean plant response rating: 4
soybean; [4]
  Soybean plant response rating: 4
soybean; [5]
  Plant response rating, Soybean: 4
Sugar beet; Preemergence, Rate 125 g/ha
  Sugarbeets plant response rating (0 to 10 scale): 0
Sugar beet; [1]
  Sugarbeets plant response rating: 0
Sugar beet; [2]
  Sugarbeets plant response rating: 3
Sugar beet; [3]
  Sugarbeets plant response rating: 0
Sugar beet; [4]
  Sugarbeets plant response rating: 0
Sugar beet; [5]
  Plant response rating, Sugarbeets: 0
velvetleaf; Preemergence, Rate 125 g/ha
  Velvetleaf plant response rating (0 to 10 scale): 0
velvetleaf; [1]
  Velvetleaf plant response rating: 0
velvetleaf; [2]
  Velvetleaf plant response rating: 0
velvetleaf; [3]
  Velvetleaf plant response rating: 0
velvetleaf; [4]
  Velvetleaf plant response rating: 0
velvetleaf; [5]
  Plant response rating, Velvetleaf: 0
wheat; Preemergence, Rate 125 g/ha
  Wheat plant response rating (0 to 10 scale): 0
wheat; [1]
  Wheat plant response rating: 0
wheat; [2]
  Wheat plant response rating: 0
wheat; [3]
  Wheat plant response rating: 0
wheat; [4]
  Wheat plant response rating: 0
wheat; [5]
  Plant response rating, Wheat: 0
Wild oat; Preemergence, Rate 125 g/ha
  Wild oats plant response rating (0 to 10 scale): 0
Wild oat; [1]
  Wild oats plant response rating: 0
Wild oat; [2]
  Wild oats plant response rating: 1
Wild oat; [3]
  Wild oats plant response rating: 0
Wild oat; [4]
  Wild oats plant response rating: 0
Wild oat; [5]
  Plant response rating, Wild oats: 0
Purple nutsedge; Preemergence, Rate 125 g/ha
  Nutsedge plant response rating (0 to 10 scale): 0
Purple nutsedge; [1]
  Nutsedge plant response rating: 0
Purple nutsedge; [3]
  Nutsedge plant response rating: 0
Purple nutsedge; [4]
  Nutsedge plant response rating: 0
Purple nutsedge; [5]
  Plant response rating, Nutsedge: 0
rice; [7]
  Rice plant response rating: 0
rice; [8]
  Rice plant response rating: 0
rice; [9]
  Rice plant response rating: 0
rice; [10]
  Rice plant response rating: 0
Smallflower flatsedge; [7]
  S. Flatsedge plant response rating: 0
Smallflower flatsedge; [8]
  S. Flatsedge plant response rating: 0
Smallflower flatsedge; [9]
  S. Flatsedge plant response rating: 0
Smallflower flatsedge; [10]
  S. Flatsedge plant response rating: 0
Duck salad; [7]
  Ducksalad plant response rating: 0
Duck salad; [8]
  Ducksalad plant response rating: 0
Duck salad; [9]
  Ducksalad plant response rating: 0
Duck salad; [10]
  Ducksalad plant response rating: 0
bamyardgrass; [7]
  Barnyardgrass plant response rating: 0
bamyardgrass; [8]
  Barnyardgrass plant response rating: 0
bamyardgrass; [9]
  Barnyardgrass plant response rating: 0
bamyardgrass; [10]
  Barnyardgrass plant response rating: 0
